Activity calls are given as the source filed them. The calls are words filed in the database; no cut-off is given here.
Tests used:
MDCK [1] = test: Inhibition of protein farnesyltransferase-mediated farnesylation of GFP-tagged H-Ras protein overexpressed in MDCK cells assessed as inhibition of protein localization into golgi and plasma membrane at 25 uM after 24 hrs by Hoechst 34580 staining-based confocal microscopy; assay type: cell-based
[2] = Inhibition of protein farnesyltransferase by continuous fluorescence assay
[3] = Blockade of protein farnesyltransferase by aggregate-based inhibition assay
MDCK [4] = test: Cytotoxicity against MDCK cells at >10 uM; assay type: cell-based, Canis lupus familiaris; settings: dog
MDCK [5] = test: Inhibition of protein farnesyltransferase-mediated farnesylation of GFP-tagged H-Ras protein overexpressed in MDCK cells assessed as inhibition of protein localization into golgi and plasma membrane at 10 uM after 48 hrs by Hoechst 34580 staining-based confocal microscopy; assay type: cell-based
[6] = Blockade of protein farnesyltransferase at 100 uM by aggregate-based inhibition assay

IC50 [2] [µM]	SMILES	Activity [3]	further results
–	Clc1ccc(COC(Cn2ccnc2)c2ccc(Cl)cc2Cl)cc1 (stereo not given)	Active	–
–	Clc1ccc(COC(Cn2ccnc2)c2ccc(Cl)cc2Cl)c(Cl)c1 (stereo not given) [MICONAZOLE]	Active	Activity (MDCK [4]): Toxic; Activity (MDCK [5]): Active
–	Clc1ccccc1C(c1ccccc1)(c1ccccc1)n1ccnc1	–	Activity [6]: inactive
> 200	CC(C)C[C@H](NC(=O)[C@@H](O)[C@H](N)Cc1ccccc1)C(=O)O [UBENIMEX]	–	–
–	O=C1OC(c2ccc(O)cc2)(c2ccc(O)cc2)c2c(I)c(I)c(I)c(I)c21	inactive	–
76	Cc1cncc(CN2CCC(=C3c4ccc(Cl)cc4CCc4cccnc43)CC2)c1 [RUPATADINE]	–	–

SMILES	IC50 [2] [µM]	Activity [3]	further results
CCOC(=O)N1CCC(=C2c3ccc(Cl)cc3CCc3cccnc32)CC1 [LORATADINE]	13.3	–	Activity (MDCK [1]): inactive

Reference: ChEMBL document CHEMBL1157633, “Prediction and evaluation of protein farnesyltransferase inhibition by commercial drugs” (J Med Chem, 2010)
